Reference: patent US5591849A, “Spiro[naphthalene-2(1H),2'-piperidine] and their use” (Takeda Chemical Industries, Ltd., priority 1994, dated 1997)
Structures can show the parent of a compound that is named as a salt.

Assays:
45Ca2+ uptake = 45Ca2+ uptake inhibition experiments (veratrine-stimulated, rat cerebral cortex crude synaptosome fraction); assay type: biochemical; settings: stimulated by 30 μM veratrine, rat cerebral cortex synaptosomes
Procedure: ^45 Ca^2+ uptake inhibition experiments
Rat cerebral cortex was homogenized with a 10-fold volume of 0.32M sucrose solution to yield a crude synaptosome fraction (100×g for 10 minutes, 12,000×g for 20 minutes). This fraction was homogenized in Tris buffer [neutralized with 132 mM sodium chloride, 5 mM potassium chloride, 1.3 mM magnesium chloride, 1.2 mM sodium dihydrogen phosphate, 1.2 mM calcium chloride, 10 mM glucose and 20 mM Tris base, saturated with a mixed gas (95% oxygen and 5% carbon dioxide)]. To 900 μl of this suspension, a DMSO solution (10 μl ) of the test drug was added, followed by 10 minutes of incubation at 37° C. 100 μl (final concentration 30μM) of a veratrine solution (containing 0.18 μci ^45 Ca^2+) was then added, followed by 10 minutes of incubation at 37° C. Subsequently, the reaction mixture was quenched by the addition of 4 ml of an ice cooled EGTA solution (120 mM sodium chloride, 5 mM potassium chloride, 5 mM EGTA, pH 7.5), and subjected to aspiration filtration through a GF/B filter; the filter was washed with two 4 ml portions of a washing solution (132 mM sodium chloride, 5 mM potassium chloride, 1.3 mM magnesium chloride, 1.2 mM calcium chloride, 20 mM Tris base, pH 7.5). The radioactivity on the filter was measured by the liquid scintillation method.
^45 Ca^2+ uptake suppression rates were calculated as follows: [formula]
^45 Ca^2+ uptake stimulated by 30 μM veratrine for 10 minutes in the presence of test drug
B: ^45 Ca^2+ uptake in the absence of veratrine and in the presence of test drug
C: ^45 Ca^2 + uptake stimulated by 30 μM veratrine for 10 minutes in the absence of test drug
D: ^45 Ca^2 + uptake in the absence of veratrine and test drug

[1] = molecular target: T1, Monoamine oxidase B (MAO-B) (Rattus norvegicus, UniProt P19643); experiment: Monoamine oxidase B (MAO-B) inhibitory activity; assay type: biochemical
T1 construct: Whole rat brains were homogenized in a 10-fold volume of ice cooled 0.32 mM sucrose solution; from tissue; host or cells: whole rat brain homogenate
T1 sequence (P19643 1-520): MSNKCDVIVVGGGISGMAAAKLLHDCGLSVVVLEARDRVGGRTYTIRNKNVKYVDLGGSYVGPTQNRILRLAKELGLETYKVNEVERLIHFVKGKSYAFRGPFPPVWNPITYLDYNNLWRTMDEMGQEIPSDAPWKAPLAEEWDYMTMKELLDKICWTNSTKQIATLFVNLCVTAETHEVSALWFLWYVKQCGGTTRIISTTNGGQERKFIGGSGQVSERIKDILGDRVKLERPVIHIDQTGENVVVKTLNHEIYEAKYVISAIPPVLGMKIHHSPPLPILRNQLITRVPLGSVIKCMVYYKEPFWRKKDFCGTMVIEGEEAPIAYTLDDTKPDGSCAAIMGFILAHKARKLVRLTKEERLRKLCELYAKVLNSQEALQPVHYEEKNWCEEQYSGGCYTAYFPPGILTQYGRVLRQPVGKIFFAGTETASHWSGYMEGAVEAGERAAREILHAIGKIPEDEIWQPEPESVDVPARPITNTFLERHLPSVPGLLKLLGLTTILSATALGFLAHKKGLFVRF
Procedure: Monoamine oxidase B (MAO-B) inhibitory activity
Whole rat brains were homogenized in a 10-fold volume of ice cooled […] sucrose solution and diluted with a 10-fold volume of 10 mM phosphate buffer (pH 7.4). To 90 μl of this enzyme specimen, 1 μl of the test drug solution was added, followed by 10 minutes of incubation at 37° C. To the mixture, 10 μM of 14C-phenylethylamine was added, followed by 5 minutes of incubation at 37° C. After the reaction was stopped by the addition of 20 μl of 3M hydrochloric acid, 1 ml of water-saturated toluene-ethyl acetate (1:1) was added. The radioactivity of the metabolite migrated in the organic layer was measured by the liquid scintillation method.

Row | Compound | 45Ca Uptake Inhibitory Activity (% inhibition at 10 μM) (45Ca2+ uptake) | IC50 [1]
1 | COc1ccc2c(c1)CCC1(CCCCN1CCN1CCN(c3ccccc3Cl)CC1)C2.Cl.Cl (stereo not drawn) [Example 7-3, 1'-[2-(4-(2-Chlorophenyl)piperazine-1-yl)ethyl]-3,4-dihydro-6-methoxyspiro[naphthalene-2(1H),2'-piperidine] dihydrochloride] | 95% | –
2 | COc1ccc2c(c1)CCC1(CCCCN1CCN1CCN(c3ccc(F)cc3)CC1)C2 (stereo not drawn) [Example 7-5, 1'-[2-(4-(4-Fluorophenyl)piperazine-1-yl)ethyl]-3,4-dihydro-6-methoxyspiro[naphthalene-2(1H),2'-piperidine]dihydrochloride] | 87% | –
3 | COc1ccc2c(c1)CCC1(CCCCN1CCN1CCN(c3cccc(C(F)(F)F)c3)CC1)C2.Cl.Cl (stereo not drawn) [Example 7-6, 1'-[2-(4-(3-Trifluoromethylphenyl)piperazine-1-yl)ethyl]-3,4-dihydro-6-methoxyspiro[naphthalene-2(1H),2'-piperidine] dihydrochloride] | 106% | –
4 | COc1ccc2c(c1)CCC1(CCCCN1CCOc1ccccc1)C2 (stereo not drawn) [Example 5-10, 3,4-Dihydro-6-methoxy-1'-(2-phenoxyethyl)spiro[naphthalene-(1H),2'-piperidine] hydrochloride] | 88% | –
5 | COc1cccc(N2CCN(CCN3CCCCC34CCc3cc(OC)ccc3C4)CC2)c1.Cl.Cl (stereo not drawn) [Example 7-1, 3,4-Dihydro-6-methoxy-1'-[2-(4-(3-methoxyphenyl)piperazine-1-yl)ethyl]spiro[naphthalene-2(1H),2'-piperidine] dihydrochloride] | 90% | –
6 | CCCN1CCCCC12CCc1cc(OCc3ccsc3)ccc1C2 (stereo not drawn) [Example 9-45, 3,4-Dihydro-1'-propyl-6-(3-thienylmethoxy)spiro[naphthalene-2(1H),2'-piperidine] hydrochloride] | – | 60 nM
7 | COc1ccc2c(c1)CCC1(CCCCN1CCCC1CCN(Cc3ccccc3)CC1)C2.Cl.Cl (stereo not drawn) [Example 5-14, 3,4-Dihydro-6-methoxy-1'-[3-(1-phenylmethylpiperidin-4yl)propyl]spiro[naphthalene-2(1H),2'-piperidine] dihydrochloride] | 74% | –
8 | COc1ccc2c(c1)CCC1(CCCCN1CCN1CCC(c3ccccc3)CC1)C2.Cl.Cl (stereo not drawn) [Example 7-9, 3,4-Dihydro-6-methoxy-1'-[2-(4-phenylpiperidine-1-yl)ethyl]spiro[naphthalene-2(1H),2'-piperidine] dihydrochloride] | 109% | –
9 | COc1ccc2c(c1)CCC1(CCCCN1CCCc1ccccc1)C2 (stereo not drawn) [Example 5-9, 3,4-Dihydro-6-methoxy-1'-(3-phenylpropyl)spiro[naphthalene-(1H),2'-piperidine] hydrochloride] | 92% | –
